Measurements: patent publication US20260297542A1, “HERBICIDE RESISTANT PLANTS” (SYNGENTA CROP PROTECTION AG, priority 2023, published 2026)
Positions count from the first letter of the chain named.

Tests used:
Test in all cases: E. coli hemG growth inhibition by herbicide, AtPPO1 variant
Format in all cases: cell-based
Conditions in all cases: read-out: percentage growth inhibition
AtPPO1 V206G = target: T1, AtPPO1 V206G (Arabidopsis thaliana, UniProt P55826, V206G)
T1 construct: expressed in transfected cells; host or cells: E. coli BL21(DE3) hemG (hemG replaced by CmR), pET24a plasmid
T1 sequence (P55826 35-537 V206G): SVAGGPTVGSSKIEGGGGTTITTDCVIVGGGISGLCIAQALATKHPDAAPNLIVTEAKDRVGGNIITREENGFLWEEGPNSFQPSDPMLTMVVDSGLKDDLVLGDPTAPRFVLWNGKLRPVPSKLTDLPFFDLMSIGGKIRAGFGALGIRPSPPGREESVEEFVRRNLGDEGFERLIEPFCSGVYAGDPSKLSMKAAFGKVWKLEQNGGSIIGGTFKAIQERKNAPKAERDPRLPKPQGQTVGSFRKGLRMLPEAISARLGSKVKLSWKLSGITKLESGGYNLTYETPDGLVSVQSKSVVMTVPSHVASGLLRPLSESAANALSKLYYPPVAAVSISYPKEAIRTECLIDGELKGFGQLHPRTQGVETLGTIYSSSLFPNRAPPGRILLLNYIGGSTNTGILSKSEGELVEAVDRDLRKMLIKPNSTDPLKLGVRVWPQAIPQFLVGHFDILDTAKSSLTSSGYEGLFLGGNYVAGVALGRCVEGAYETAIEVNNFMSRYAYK
Outline: (§1)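 E. coli BL21(DE3) ΔhemG::CmR complemented by AtPPO1 variants (pET24a, T7, E. coli codon-optimised); TB + 0.1 mM IPTG, 1:100 inoculum; 6.25 ppm herbicide 0/E or 0.78 ppm herbicide B vs DMSO; 24 h, 37° C, 250 rpm; OD600 at 24 h → % growth inhibition.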

AtPPO1 D448N = target: T2, AtPPO1 D448N (Arabidopsis thaliana, UniProt P55826, D448N)
T2 construct: expressed in transfected cells; host or cells: E. coli BL21(DE3) hemG, pET24a plasmid
T2 sequence (P55826 35-537 D448N): T1 sequence (P55826 35-537 V206G) with G172V, D414N
Outline: as §1

AtPPO1 E212Y = target: T3, AtPPO1 E212Y (Arabidopsis thaliana, UniProt P55826, E212Y)
T3 construct: expressed in transfected cells; host or cells: E. coli BL21(DE3) hemG (hemG replaced by CmR), pET24a plasmid
T3 sequence (P55826 35-537 E212Y): T1 sequence (P55826 35-537 V206G) with G172V, E178Y
Outline: as §1

AtPPO1 G404A = target: T4, AtPPO1 G404A (Arabidopsis thaliana, UniProt P55826, G404A)
T4 construct: expressed in transfected cells; host or cells: E. coli BL21(DE3) hemG (pET24a, T7 promoter)
T4 sequence (P55826 35-537 G404A): T1 sequence (P55826 35-537 V206G) with G172V, G370A
Outline: as §1

Row | Compound | inhibition at 6.25 ppm (AtPPO1 V206G) | inhibition at 6.25 ppm (AtPPO1 D448N) | inhibition at 6.25 ppm (AtPPO1 E212Y) | inhibition at 6.25 ppm (AtPPO1 G404A) | inhibition at 0.78 ppm (AtPPO1 V206G) | inhibition at 0.78 ppm (AtPPO1 D448N) | inhibition at 0.78 ppm (AtPPO1 E212Y) | inhibition at 0.78 ppm (AtPPO1 G404A)
1 | CC(C)N(C)S(=O)(=O)NC(=O)c1cc(-n2c(=O)cc(C(F)(F)F)n(C)c2=O)c(F)cc1Cl [Herbicide E, saflufenacil] | 58% | 63% | 65% | 2% |  |  |  | 
2 | C#CCN1C(=O)C(F)(F)Oc2cc(F)c(-n3c(=O)n(C)c(=S)n(C)c3=O)cc21 [Herbicide B, trifludimoxazin] |  |  |  |  | 32% | 40% | 25% | 12%
3 | CCOC(=O)[C@]1(C)CC(c2cc(-n3c(=O)n(C)c(=S)n(C)c3=O)c(F)cc2Cl)=NO1 [Herbicide D, ethyl (5S)-3-[2-chloro-5-(3,5-dimethyl-2,6-dioxo-4-thioxo-1,3,5-triazinan-1-yl)-4-fluoro-phenyl]-5-methyl-4H-isoxazole-5-carboxylate] | 19% | 38% | 27% | 4% |  |  |  | 
